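Cultured in 96-well plates, cells were exposed to test compound for 48 hours across five concentrations. The concentration for 50% growth inhibition is given as GI50.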 The source made the active and inactive calls. Rule as the data show it: active = GI50 up to about 1.1 µM and inactive = higher. Where a SMILES comes first, the peptide text is derived from it. The star is where a group is joined. ONb = O=[N+]([O-])c1ccc(CO*)cc1; Boc = CC(C)(C)OC(=O)*
Experiments:
Assay in all cases: DTP human tumour cell line panel, 48 h
UACC-257 = tested on: UACC-257
COLO 205 = tested on: COLO 205
NCI-H522 = tested on: NCI-H522
MOLT-4 = tested on: MOLT-4
MDA-MB-435 = tested on: MDA-MB-435
K562 = tested on: K562
786-0 = tested on: 786-0
HCC 2998 = tested on: HCC 2998
T47D = tested on: T47D
SR = tested on: SR
SK-MEL-5 = tested on: SK-MEL-5
NCI-H460 = tested on: NCI-H460
Malme-3M = tested on: Malme-3M
SK-MEL-28 = tested on: SK-MEL-28
KM12 = tested on: KM12
LOX IMVI = tested on: LOX IMVI
SNB-75 = tested on: SNB-75
HL-60 = tested on: HL-60
RXF 393 = tested on: RXF 393
BT-549 = tested on: BT-549

Measured: GI50

O=C1NCN(c2ccccc2)C12CCN(CCCSc1ccc(F)cc1)CC2
inactive: UACC-257 2.92 µM | COLO 205 1.51 µM | NCI-H522 > 83.9 µM | MOLT-4 12.2 µM | MDA-MB-435 12.8 µM | K562 19.5 µM | 786-0 24.3 µM | HCC 2998 20.2 µM | T47D 28.6 µM | SR 15.9 µM | SK-MEL-5 6.44 µM | NCI-H460 13 µM | Malme-3M 21.2 µM | SK-MEL-28 55.2 µM | KM12 30.2 µM | LOX IMVI 10.5 µM | SNB-75 3.72 µM | HL-60 21.8 µM | RXF 393 > 42 µM

O=[N+]([O-])c1ccc(S(=O)(=O)n2c3ccc(Br)cc3c3nc4ccccc4nc32)cc1
inactive: UACC-257 > 100 µM | COLO 205 > 100 µM | NCI-H522 > 100 µM | MOLT-4 > 100 µM | MDA-MB-435 > 100 µM | K562 70.8 µM | 786-0 > 100 µM | HCC 2998 > 100 µM | T47D > 100 µM | SR > 100 µM | SK-MEL-5 > 100 µM | NCI-H460 > 100 µM | SK-MEL-28 > 100 µM | KM12 > 100 µM | LOX IMVI > 100 µM | SNB-75 77.6 µM | RXF 393 > 100 µM

CC(C)CC(NC(=O)OC(C)(C)C)C(=O)NC(CCC(=O)OCc1ccc([N+](=O)[O-])cc1)C(=O)OCc1ccc([N+](=O)[O-])cc1 (stereo not drawn) (Boc-Leu-Glu(ONb)-ONb; configuration not given here)
inactive: UACC-257 43.8 µM | COLO 205 17.4 µM | NCI-H522 4.57 µM | MOLT-4 13 µM | MDA-MB-435 > 10 µM | K562 9.44 µM | 786-0 26.1 µM | HCC 2998 23 µM | T47D 92.3 µM | SR 13.8 µM | NCI-H460 22 µM | Malme-3M > 100 µM | SK-MEL-28 15.8 µM | LOX IMVI 25.2 µM | SNB-75 16.6 µM | HL-60 4.05 µM

CC(C)(C)n1c(=O)n(-c2ccccc2)n(C(C)(C)C)c1=O
inactive: UACC-257 > 100 µM | COLO 205 > 100 µM | BT-549 > 100 µM | MOLT-4 > 100 µM | K562 > 100 µM | 786-0 > 100 µM | HCC 2998 > 100 µM | SR > 100 µM | SK-MEL-5 > 100 µM | NCI-H460 > 100 µM | Malme-3M > 100 µM | SK-MEL-28 > 100 µM | KM12 > 100 µM | LOX IMVI > 100 µM | SNB-75 63.1 µM | HL-60 > 100 µM | RXF 393 > 100 µM

O=C1CCCCC[C@]12SC[C@H]1CON=C12
inactive: UACC-257 78.2 µM | COLO 205 29.2 µM | BT-549 39.2 µM | NCI-H522 22.6 µM | MOLT-4 36.3 µM | MDA-MB-435 16.7 µM | K562 42.6 µM | 786-0 34 µM | HCC 2998 29.1 µM | SR 9.42 µM | SK-MEL-5 > 100 µM | NCI-H460 39.1 µM | Malme-3M 18.8 µM | SK-MEL-28 27.8 µM | KM12 60.3 µM | LOX IMVI 35.2 µM | HL-60 25.9 µM | RXF 393 21.1 µM

CC(C)CCC(=O)c1ccoc1 [PERILLAKETONE]
inactive: UACC-257 > 100 µM | COLO 205 > 100 µM | MOLT-4 > 100 µM | MDA-MB-435 > 100 µM | K562 > 100 µM | 786-0 > 100 µM | HCC 2998 > 100 µM | T47D > 100 µM | SR > 100 µM | SK-MEL-5 > 100 µM | NCI-H460 > 100 µM | Malme-3M > 100 µM | SK-MEL-28 > 100 µM | KM12 > 100 µM | LOX IMVI > 100 µM | SNB-75 > 100 µM | HL-60 > 100 µM | RXF 393 > 100 µM

CSc1ncnc2c1ncn2CCC(=O)O
inactive: UACC-257 > 100 µM | COLO 205 > 100 µM | NCI-H522 > 100 µM | MOLT-4 > 100 µM | MDA-MB-435 > 100 µM | K562 > 100 µM | 786-0 > 100 µM | SR > 100 µM | SK-MEL-5 > 100 µM | NCI-H460 > 100 µM | Malme-3M > 100 µM | SK-MEL-28 > 100 µM | KM12 > 100 µM | LOX IMVI > 100 µM | SNB-75 > 100 µM | HL-60 > 100 µM | RXF 393 > 100 µM

O=c1ccn2n1CCCCC2
inactive: UACC-257 > 100 µM | COLO 205 > 100 µM | NCI-H522 > 100 µM | MOLT-4 > 100 µM | MDA-MB-435 > 100 µM | K562 > 100 µM | 786-0 > 100 µM | HCC 2998 > 100 µM | T47D 58.2 µM | SR > 100 µM | SK-MEL-5 > 100 µM | NCI-H460 > 100 µM | Malme-3M > 100 µM | SK-MEL-28 > 100 µM | KM12 > 100 µM | LOX IMVI > 100 µM | HL-60 > 100 µM | RXF 393 > 100 µM
